In BindingDB's records for patent US11787766 (Shanghai Ennovabio Pharmaceuticals, 2023) one finds IC50 data, which are given here for 8 compounds.

In general, IC50 refers to the concentration needed to halve the response being measured. Low readings indicate higher potency, high ones lower potency.

This assay has as its target Programmed cell death 1 ligand/protein 1 (Homo sapiens, UniProt Q9NZQ7). Briefly: Homogeneous Time-Resolved Fluorescence (HTRF). From the text: PD1/PD-L1 binding assay kit (Cisbio, Cat #63ADK000CPDEC) was used, which includes two proteins, Tag 1-PD-L1 and Tag 2-PD-1, and two antibodies, Anti-Tag1-Eu3+ and Anti-Tag2-XL 665. Assay principle: Anti-tag1-Eu3+ is the HTRF donor, and Anti-Tag2-XL 665 is the HTRF acceptor. When Tag 1-PD-L1 and Tag 2-PD-1 interact, the added HTRF donor and the acceptor are close to each other. After the donor receives the excitation energy, it transfers part of the energy to the acceptor, thus producing 665 nm emission signal. When the compound is added to block the PD1/PD-L1 interaction, only 620 nm emission light was detected. The inhibitory effect of the compound was determined by analyzing the ratio of 665 nm/620 nm. Tag 1-PD-L1 was diluted with Diluent buffer (cat #62DLBDDF) to a working concentration of 10 nM, Tag 2-PD-1 was diluted with Diluent buffer to a working concentration of 500 nM, and Anti-Tag1-Eu3+ was diluted with detection buffer (cat #62DB1FDG) by 1:100, Anti-Tag2-XL 665 was diluted with detection buffer by 1:20, and the test compound was diluted with Diluent buffer to a final concentration of 2×. In a 384-well plate, 2 μL of compound was added to each well, and then 4 μL of Tag 1-PD-L1, 4 μL of Tag 2-PD-1 were added and incubated at room temperature for 15 minutes.
In general terms: In TR-FRET formats the signal depends on donor and acceptor labels being close together.

Sequence of Programmed cell death 1 ligand/protein 1 (Q9NZQ7 whole entry): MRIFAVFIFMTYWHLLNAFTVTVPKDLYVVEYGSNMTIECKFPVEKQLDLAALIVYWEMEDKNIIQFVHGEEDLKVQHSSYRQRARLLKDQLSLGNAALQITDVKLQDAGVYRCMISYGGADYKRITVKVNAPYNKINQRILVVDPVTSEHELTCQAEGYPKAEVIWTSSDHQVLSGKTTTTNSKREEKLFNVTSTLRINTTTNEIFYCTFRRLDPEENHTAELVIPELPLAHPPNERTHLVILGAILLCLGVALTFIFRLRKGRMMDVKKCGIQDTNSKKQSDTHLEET
Sequence of Programmed cell death 1 ligand/protein 1 (Q15116 whole entry, further chain): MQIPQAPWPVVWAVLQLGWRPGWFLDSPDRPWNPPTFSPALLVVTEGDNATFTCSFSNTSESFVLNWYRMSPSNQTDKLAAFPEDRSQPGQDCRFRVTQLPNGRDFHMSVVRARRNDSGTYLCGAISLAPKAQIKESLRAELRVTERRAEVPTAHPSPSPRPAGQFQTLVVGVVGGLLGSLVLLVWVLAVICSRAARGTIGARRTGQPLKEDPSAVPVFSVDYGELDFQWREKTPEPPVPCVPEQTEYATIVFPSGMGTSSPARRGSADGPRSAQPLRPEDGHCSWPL

In the case of `COc1nc(OCc2cccc(-c3cccc(CO)c3C)c2C)ccc1CNCCNC(C)=O` [US11787766, Compound 2], the half-inhibitory concentration (IC50) is over 1 µM.
Take `COc1nc(OCc2cccc(-c3cccc(CO)c3C)c2C)ccc1CN` [US11787766, Compound 3]: the IC50 was over 1 µM.
As to `COc1nc(OCc2cccc(-c3cccc(COc4ccc(C#N)c(OC)n4)c3C)c2C)ccc1C#N` [US11787766, Compound 5], the concentration for half-maximal inhibition (IC50) was over 1 µM.
As for `COc1cc(OCc2cccc(-c3cccc(CO)c3C)c2C)cc(OC)c1CN` [US11787766, Compound 11], the figure is over 1 µM; as for `COc1nc(OCc2cccc(-c3cccc(CN)c3C)c2)ccc1CN` [US11787766, Compound 16], over 1 µM; as for `COc1nc(OCc2cccc(-c3cccc(COc4ccc(CNCCNC(C)=O)c(OC)n4)c3C)c2C)ccc1C#N` [US11787766, Compound 17], over 1 µM.
As for `COc1nc(OCc2cccc(-c3cccc(COc4ccc(CNCCNC(C)=O)c(OC)n4)c3Cl)c2C)ccc1CNCCNC(C)=O` [US11787766, Compound 30], the figure is under 0.01 µM; as for `COc1nc(OCc2cccc(-c3cccc(COc4ccc(CN5C[C@H](O)C[C@H]5CO)c(OC)n4)c3Cl)c2Cl)ccc1CN1C[C@H](O)C[C@H]1CO` [US11787766, Compound 69], under 0.01 µM.
